Measurements: ChEMBL document CHEMBL1201862, “PubChem BioAssay data set” (2004)
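These data come from cells grown in 96-well plates and exposed to compound for 48 hours at five concentrations. At the GI50, growth is halved.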 Active and inactive are the calls of the source. No stated cut-off is given here; in the data, active = GI50 up to about 1.1 µM and inactive = higher.

What was measured:
Experiment in all cases: inhibition of tumour cell growth, NCI panel, 48 h
[1] = tested on: LXFL 529
[2] = tested on: DLD-1
[3] = tested on: DMS-114
[4] = tested on: DMS-273
[5] = tested on: SNB-78
[6] = tested on: HOP-18
[7] = tested on: RXF 631
[8] = tested on: XF498
[9] = tested on: M19-MEL

Measured: GI50

CC(C)c1cccc(C(C)C)c1/N=C(/N)C#N
inactive: [1] > 67.1 µM | [2] 37 µM | [3] 29.9 µM | [4] > 43 µM | [5] 99.1 µM | [6] > 86.1 µM | [7] > 100 µM | [8] > 100 µM | [9] > 60 µM
